Data taken from ChEMBL document CHEMBL5532679, “Discovery and Characterization of RGH-122, a Potent, Selective, and Orally Bioavailable V1a Receptor Antagonist” (J Med Chem, 2024).

Tested on: not listed separately
Test: animal or person
Settings: Mus musculus, NMRI, po, read-out: INH

Compound | inhibition in vivo at 3 mg/kg [%]
Clc1ccc2c(c1)CC1(Cc3nnc([C@H]4CC[C@H](Oc5ccccn5)CC4)n3-2)OCCCO1 | 69
CC(C)NC1Cc2cc(F)ccc2-n2c(nnc2[C@H]2CC[C@H](Oc3ccccn3)CC2)C1 (stereo partly specified) | 58
CO[C@]1(C)CC[C@@H](c2nnc3n2-c2ccc(Cl)cc2CC2(C3)OCCO2)CC1 | 0
CC(C)NC1Cc2cc(C#N)ccc2-n2c(nnc2[C@H]2CC[C@H](Oc3ccccn3)CC2)C1 (stereo partly specified) | 56
O[C@H]1Cc2cc(Cl)ccc2-n2c(nnc2[C@H]2CC[C@H](Oc3ccccn3)CC2)C1 | 84
CC(C)NC1Cc2cc(Br)ccc2-n2c(nnc2[C@H]2CC[C@H](Oc3ccccn3)CC2)C1 (stereo partly specified) | 64

Molecular target: T1, Vasopressin V1a receptor (Homo sapiens, UniProt P37288)
Test: not given
Settings: not given

T1 sequence (P37288 whole entry): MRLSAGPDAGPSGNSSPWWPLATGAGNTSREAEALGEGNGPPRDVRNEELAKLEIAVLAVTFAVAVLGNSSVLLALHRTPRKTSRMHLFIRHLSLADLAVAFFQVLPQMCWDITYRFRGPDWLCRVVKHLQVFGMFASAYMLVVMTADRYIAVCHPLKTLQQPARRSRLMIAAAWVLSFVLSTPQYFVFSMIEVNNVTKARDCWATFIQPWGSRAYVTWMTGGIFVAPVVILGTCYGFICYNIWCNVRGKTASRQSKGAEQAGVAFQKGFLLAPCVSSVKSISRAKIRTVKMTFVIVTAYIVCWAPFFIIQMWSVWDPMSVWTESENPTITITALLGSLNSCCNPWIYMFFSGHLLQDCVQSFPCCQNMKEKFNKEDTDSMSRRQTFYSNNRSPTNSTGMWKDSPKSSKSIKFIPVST

Compound | IC50 [nM]
Clc1ccc2c(c1)CC(CNC1CCOCC1)Cc1nnc([C@H]3CC[C@H](Oc4ccccn4)CC3)n1-2 (stereo partly specified) | 15
CNC1CCc2nnc([C@H]3CC[C@H](Oc4ccccn4)CC3)n2-c2ccc(Cl)cc21 (stereo partly specified) | 6.9
Clc1ccc2c(c1)CC(CN1CCOCC1)Cc1nnc([C@H]3CC[C@H](Oc4ccccn4)CC3)n1-2 (stereo partly specified) | 2.1
CN1CCN(CC2Cc3cc(Cl)ccc3-n3c(nnc3[C@H]3CC[C@H](Oc4ccccn4)CC3)C2)CC1 (stereo partly specified) | 7.1
NC1CCc2cc(Cl)ccc2-n2c1nnc2[C@H]1CC[C@H](Oc2ccccn2)CC1 (stereo partly specified) | 42
NCC1Cc2cc(Cl)ccc2-n2c(nnc2[C@H]2CC[C@H](Oc3ccccn3)CC2)C1 (stereo partly specified) | 15
CC(C)NCC1Cc2cc(Cl)ccc2-n2c(nnc2[C@H]2CC[C@H](Oc3ccccn3)CC2)C1 (stereo partly specified) | 55
CN(C)CC1Cc2cc(Cl)ccc2-n2c(nnc2[C@H]2CC[C@H](Oc3ccccn3)CC2)C1 (stereo partly specified) | 4.7

Tested on: not listed separately
Test: in vitro
Settings: Wistar, rat, microsomes

Compound | microsomal CLint at 1 µM [µL/min/mg]
Clc1ccc2c(c1)CC1(Cc3nnc([C@H]4CC[C@H](Oc5ccccn5)CC4)n3-2)OCCCO1 | 15
Clc1ccc2c(c1)CC(CNC1CCOCC1)Cc1nnc([C@H]3CC[C@H](Oc4ccccn4)CC3)n1-2 (stereo partly specified) | 8
CN(C)CC(=O)NC1Cc2cc(Cl)ccc2-n2c(nnc2[C@H]2CC[C@H](Oc3ccccn3)CC2)C1 (mixture of isomers) | 6
Clc1ccc2c(c1)CC(NC1COC1)Cc1nnc([C@H]3CC[C@H](Oc4ccccn4)CC3)n1-2 (stereo partly specified) | 17
CO[C@]1(C)CC[C@@H](c2nnc3n2-c2ccc(Cl)cc2CC2(C3)OCCO2)CC1 | 12
N[C@@H]1Cc2cc(Cl)ccc2-n2c(nnc2[C@H]2CC[C@H](Oc3ccccn3)CC2)C1 | 7
Clc1ccc2c(c1)CC(CN1CCOCC1)Cc1nnc([C@H]3CC[C@H](Oc4ccccn4)CC3)n1-2 (stereo partly specified) | 145
Clc1ccc2c(c1)CC(NC1CCOCC1)Cc1nnc([C@H]3CC[C@H](Oc4ccccn4)CC3)n1-2 (stereo partly specified) | 9
CN1CCN(CC2Cc3cc(Cl)ccc3-n3c(nnc3[C@H]3CC[C@H](Oc4ccccn4)CC3)C2)CC1 (stereo partly specified) | 3
CNC1Cc2cc(Cl)ccc2-n2c(nnc2[C@H]2CC[C@H](Oc3ccccn3)CC2)C1 (stereo partly specified) | 19
O[C@H]1Cc2cc(Cl)ccc2-n2c(nnc2[C@H]2CC[C@H](Oc3ccccn3)CC2)C1 | 18
NCC1Cc2cc(Cl)ccc2-n2c(nnc2[C@H]2CC[C@H](Oc3ccccn3)CC2)C1 (stereo partly specified) | 25
CC(C)NCC1Cc2cc(Cl)ccc2-n2c(nnc2[C@H]2CC[C@H](Oc3ccccn3)CC2)C1 (stereo partly specified) | 6
CN(C)CC1Cc2cc(Cl)ccc2-n2c(nnc2[C@H]2CC[C@H](Oc3ccccn3)CC2)C1 (stereo partly specified) | 47

Molecular target: Voltage-gated inwardly rectifying potassium channel KCNH2 (Homo sapiens, UniProt Q12809)
Test: not given
Settings: not given

Chain of Voltage-gated inwardly rectifying potassium channel KCNH2 (Q12809 whole entry): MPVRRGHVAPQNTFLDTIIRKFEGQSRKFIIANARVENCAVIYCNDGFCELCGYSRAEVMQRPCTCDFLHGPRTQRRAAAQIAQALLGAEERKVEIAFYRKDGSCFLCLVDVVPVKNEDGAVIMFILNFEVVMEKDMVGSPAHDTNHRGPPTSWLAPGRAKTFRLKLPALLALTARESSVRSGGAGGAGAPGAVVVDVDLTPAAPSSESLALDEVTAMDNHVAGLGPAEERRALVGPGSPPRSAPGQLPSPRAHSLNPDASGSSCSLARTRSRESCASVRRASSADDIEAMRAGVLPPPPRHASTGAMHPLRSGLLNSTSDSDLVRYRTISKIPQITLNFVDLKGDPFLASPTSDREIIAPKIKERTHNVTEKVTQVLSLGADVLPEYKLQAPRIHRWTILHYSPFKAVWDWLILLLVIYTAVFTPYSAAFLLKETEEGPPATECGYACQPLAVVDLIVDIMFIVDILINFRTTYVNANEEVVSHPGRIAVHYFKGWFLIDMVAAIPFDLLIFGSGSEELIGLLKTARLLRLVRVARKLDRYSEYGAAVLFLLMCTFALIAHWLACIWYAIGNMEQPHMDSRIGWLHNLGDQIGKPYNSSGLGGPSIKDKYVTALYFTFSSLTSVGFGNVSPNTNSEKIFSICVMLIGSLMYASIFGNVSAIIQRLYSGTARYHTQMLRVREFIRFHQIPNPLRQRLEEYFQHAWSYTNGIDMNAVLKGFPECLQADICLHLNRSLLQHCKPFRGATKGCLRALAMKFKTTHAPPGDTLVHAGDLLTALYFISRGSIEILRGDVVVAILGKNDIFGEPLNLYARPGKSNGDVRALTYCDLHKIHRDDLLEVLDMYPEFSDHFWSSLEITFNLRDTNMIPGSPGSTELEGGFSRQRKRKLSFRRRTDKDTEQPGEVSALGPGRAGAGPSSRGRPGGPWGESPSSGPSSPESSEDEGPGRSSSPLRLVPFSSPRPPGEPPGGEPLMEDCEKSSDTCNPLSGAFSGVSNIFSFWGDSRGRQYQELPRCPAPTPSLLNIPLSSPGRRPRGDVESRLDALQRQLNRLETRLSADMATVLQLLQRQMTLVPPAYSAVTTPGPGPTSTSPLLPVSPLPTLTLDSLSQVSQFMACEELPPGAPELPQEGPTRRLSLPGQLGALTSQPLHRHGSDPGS

Compound | IC50 [nM]
CO[C@]1(C)CC[C@@H](c2nnc3n2-c2ccc(Cl)cc2CC2(C3)OCCO2)CC1 | > 30000
N[C@@H]1Cc2cc(Cl)ccc2-n2c(nnc2[C@H]2CC[C@H](Oc3ccccn3)CC2)C1 | 16700
O[C@H]1Cc2cc(Cl)ccc2-n2c(nnc2[C@H]2CC[C@H](Oc3ccccn3)CC2)C1 | > 30000

Tested on: not listed separately
Test: Apparent permeability of compound across apical to basal side in vinblastine treated human Caco-2 cells at 1 to 10 uM incubated for 15 to 60 mins by HPLC analysis
Settings: not given

Compound | Papp A→B at 10 µM [nm/s]
Clc1ccc2c(c1)CC1(Cc3nnc([C@H]4CC[C@H](Oc5ccccn5)CC4)n3-2)OCCCO1 | 70
Clc1ccc2c(c1)CC(CNC1CCOCC1)Cc1nnc([C@H]3CC[C@H](Oc4ccccn4)CC3)n1-2 (stereo partly specified) | 81
CNC1CCc2nnc([C@H]3CC[C@H](Oc4ccccn4)CC3)n2-c2ccc(Cl)cc21 (stereo partly specified) | 93
Clc1ccc2c(c1)CC(NC1COC1)Cc1nnc([C@H]3CC[C@H](Oc4ccccn4)CC3)n1-2 (stereo partly specified) | 240
CO[C@]1(C)CC[C@@H](c2nnc3n2-c2ccc(Cl)cc2CC2(C3)OCCO2)CC1 | 420
N[C@@H]1Cc2cc(Cl)ccc2-n2c(nnc2[C@H]2CC[C@H](Oc3ccccn3)CC2)C1 | 28
Clc1ccc2c(c1)CC(NC1CCOCC1)Cc1nnc([C@H]3CC[C@H](Oc4ccccn4)CC3)n1-2 (stereo partly specified) | 410
CN1CCN(CC2Cc3cc(Cl)ccc3-n3c(nnc3[C@H]3CC[C@H](Oc4ccccn4)CC3)C2)CC1 (stereo partly specified) | 86
CNC1Cc2cc(Cl)ccc2-n2c(nnc2[C@H]2CC[C@H](Oc3ccccn3)CC2)C1 (stereo partly specified) | 400
O[C@H]1Cc2cc(Cl)ccc2-n2c(nnc2[C@H]2CC[C@H](Oc3ccccn3)CC2)C1 | 200

Tested on: not listed separately
Test: Efflux ratio of apparent permeability across basolateral to apical side over apical to basolateral side in vinblastine treated human Caco-2 cells at 1 to 10 uM incubated for 15 to 60 hrs by HPLC analysis
Settings: not given

Compound | efflux ratio at 10 µM
Clc1ccc2c(c1)CC1(Cc3nnc([C@H]4CC[C@H](Oc5ccccn5)CC4)n3-2)OCCCO1 | 0.8
Clc1ccc2c(c1)CC(CNC1CCOCC1)Cc1nnc([C@H]3CC[C@H](Oc4ccccn4)CC3)n1-2 (stereo partly specified) | 7.1
CNC1CCc2nnc([C@H]3CC[C@H](Oc4ccccn4)CC3)n2-c2ccc(Cl)cc21 (stereo partly specified) | 6.8
Clc1ccc2c(c1)CC(NC1COC1)Cc1nnc([C@H]3CC[C@H](Oc4ccccn4)CC3)n1-2 (stereo partly specified) | 4.4
CO[C@]1(C)CC[C@@H](c2nnc3n2-c2ccc(Cl)cc2CC2(C3)OCCO2)CC1 | 1
N[C@@H]1Cc2cc(Cl)ccc2-n2c(nnc2[C@H]2CC[C@H](Oc3ccccn3)CC2)C1 | 35
Clc1ccc2c(c1)CC(NC1CCOCC1)Cc1nnc([C@H]3CC[C@H](Oc4ccccn4)CC3)n1-2 (stereo partly specified) | 1.1
CN1CCN(CC2Cc3cc(Cl)ccc3-n3c(nnc3[C@H]3CC[C@H](Oc4ccccn4)CC3)C2)CC1 (stereo partly specified) | 7.5
CNC1Cc2cc(Cl)ccc2-n2c(nnc2[C@H]2CC[C@H](Oc3ccccn3)CC2)C1 (stereo partly specified) | 1.8

Tested on: not listed separately
Test: in vitro
Settings: human, microsomes

Compound | microsomal CLint at 1 µM [µL/min/mg]
Clc1ccc2c(c1)CC(CNC1CCOCC1)Cc1nnc([C@H]3CC[C@H](Oc4ccccn4)CC3)n1-2 (stereo partly specified) | 14
CN(C)CC(=O)NC1Cc2cc(Cl)ccc2-n2c(nnc2[C@H]2CC[C@H](Oc3ccccn3)CC2)C1 (mixture of isomers) | 0.2
Clc1ccc2c(c1)CC(NC1COC1)Cc1nnc([C@H]3CC[C@H](Oc4ccccn4)CC3)n1-2 (stereo partly specified) | 16
N[C@@H]1Cc2cc(Cl)ccc2-n2c(nnc2[C@H]2CC[C@H](Oc3ccccn3)CC2)C1 | 5
Clc1ccc2c(c1)CC(CN1CCOCC1)Cc1nnc([C@H]3CC[C@H](Oc4ccccn4)CC3)n1-2 (stereo partly specified) | 134
Clc1ccc2c(c1)CC(NC1CCOCC1)Cc1nnc([C@H]3CC[C@H](Oc4ccccn4)CC3)n1-2 (stereo partly specified) | 24
CN1CCN(CC2Cc3cc(Cl)ccc3-n3c(nnc3[C@H]3CC[C@H](Oc4ccccn4)CC3)C2)CC1 (stereo partly specified) | 11
CNC1Cc2cc(Cl)ccc2-n2c(nnc2[C@H]2CC[C@H](Oc3ccccn3)CC2)C1 (stereo partly specified) | 12
NCC1Cc2cc(Cl)ccc2-n2c(nnc2[C@H]2CC[C@H](Oc3ccccn3)CC2)C1 (stereo partly specified) | 48
CC(C)NCC1Cc2cc(Cl)ccc2-n2c(nnc2[C@H]2CC[C@H](Oc3ccccn3)CC2)C1 (stereo partly specified) | 20
CN(C)CC1Cc2cc(Cl)ccc2-n2c(nnc2[C@H]2CC[C@H](Oc3ccccn3)CC2)C1 (stereo partly specified) | 42

Tested on: not listed separately
Test: animal or person
Settings: Mus musculus, NMRI, po, read-out: INH
Remark: another data set of the same source

Compound | inhibition in vivo at 10 mg/kg [%]
Clc1ccc2c(c1)CC1(Cc3nnc([C@H]4CC[C@H](Oc5ccccn5)CC4)n3-2)OCCCO1 | 79
CO[C@]1(C)CC[C@@H](c2nnc3n2-c2ccc(Cl)cc2CC2(C3)OCCO2)CC1 | 41
O[C@H]1Cc2cc(Cl)ccc2-n2c(nnc2[C@H]2CC[C@H](Oc3ccccn3)CC2)C1 | 92

Molecular target: T1, Vasopressin V1a receptor
Test: not given
Settings: not given
Remark: another data set of the same source

Compound | Ki [nM]
Clc1ccc2c(c1)CC(CNC1CCOCC1)Cc1nnc([C@H]3CC[C@H](Oc4ccccn4)CC3)n1-2 (stereo partly specified) | 2.3
CNC1CCc2nnc([C@H]3CC[C@H](Oc4ccccn4)CC3)n2-c2ccc(Cl)cc21 (stereo partly specified) | 1.3
Clc1ccc2c(c1)CC(CN1CCOCC1)Cc1nnc([C@H]3CC[C@H](Oc4ccccn4)CC3)n1-2 (stereo partly specified) | 0.4
CN1CCN(CC2Cc3cc(Cl)ccc3-n3c(nnc3[C@H]3CC[C@H](Oc4ccccn4)CC3)C2)CC1 (stereo partly specified) | 0.8
NC1CCc2cc(Cl)ccc2-n2c1nnc2[C@H]1CC[C@H](Oc2ccccn2)CC1 (stereo partly specified) | 8
NCC1Cc2cc(Cl)ccc2-n2c(nnc2[C@H]2CC[C@H](Oc3ccccn3)CC2)C1 (stereo partly specified) | 3.1
CC(C)NCC1Cc2cc(Cl)ccc2-n2c(nnc2[C@H]2CC[C@H](Oc3ccccn3)CC2)C1 (stereo partly specified) | 2.8
CN(C)CC1Cc2cc(Cl)ccc2-n2c(nnc2[C@H]2CC[C@H](Oc3ccccn3)CC2)C1 (stereo partly specified) | 0.5

Tested on: not listed separately
Test: in vitro
Settings: NMRI, mouse, microsomes

Compound | microsomal CLint at 1 µM [µL/min/mg]
Clc1ccc2c(c1)CC1(Cc3nnc([C@H]4CC[C@H](Oc5ccccn5)CC4)n3-2)OCCCO1 | 27
Clc1ccc2c(c1)CC(CNC1CCOCC1)Cc1nnc([C@H]3CC[C@H](Oc4ccccn4)CC3)n1-2 (stereo partly specified) | 6
CN(C)CC(=O)NC1Cc2cc(Cl)ccc2-n2c(nnc2[C@H]2CC[C@H](Oc3ccccn3)CC2)C1 (mixture of isomers) | 2
Clc1ccc2c(c1)CC(NC1COC1)Cc1nnc([C@H]3CC[C@H](Oc4ccccn4)CC3)n1-2 (stereo partly specified) | 14
CO[C@]1(C)CC[C@@H](c2nnc3n2-c2ccc(Cl)cc2CC2(C3)OCCO2)CC1 | 16
N[C@@H]1Cc2cc(Cl)ccc2-n2c(nnc2[C@H]2CC[C@H](Oc3ccccn3)CC2)C1 | 9
Clc1ccc2c(c1)CC(CN1CCOCC1)Cc1nnc([C@H]3CC[C@H](Oc4ccccn4)CC3)n1-2 (stereo partly specified) | 101
Clc1ccc2c(c1)CC(NC1CCOCC1)Cc1nnc([C@H]3CC[C@H](Oc4ccccn4)CC3)n1-2 (stereo partly specified) | 15
CN1CCN(CC2Cc3cc(Cl)ccc3-n3c(nnc3[C@H]3CC[C@H](Oc4ccccn4)CC3)C2)CC1 (stereo partly specified) | 6
CNC1Cc2cc(Cl)ccc2-n2c(nnc2[C@H]2CC[C@H](Oc3ccccn3)CC2)C1 (stereo partly specified) | 24
O[C@H]1Cc2cc(Cl)ccc2-n2c(nnc2[C@H]2CC[C@H](Oc3ccccn3)CC2)C1 | 7
NCC1Cc2cc(Cl)ccc2-n2c(nnc2[C@H]2CC[C@H](Oc3ccccn3)CC2)C1 (stereo partly specified) | 35
CC(C)NCC1Cc2cc(Cl)ccc2-n2c(nnc2[C@H]2CC[C@H](Oc3ccccn3)CC2)C1 (stereo partly specified) | 8
CN(C)CC1Cc2cc(Cl)ccc2-n2c(nnc2[C@H]2CC[C@H](Oc3ccccn3)CC2)C1 (stereo partly specified) | 39
